# Data taken from PMC11117252, “The MraY Inhibitor Muraymycin D2 and Its Derivatives Induce Enlarged Cells in Obligate Intracellular Chlamydia and Wolbachia and Break the Persistence Phenotype in Chlamydia” (Antibiotics, 2024).
# Like-named read-outs stand apart in the source and are kept apart here.
# Columns and labels:
# C. trachomatis serovar D = C. trachomatis serovar D in cell culture; cited from earlier work
# Method: The tested compounds were applied to C. trachomatis-infected cells at an early stage of the chlamydial developmental cycle (Figure 1a), before the bacteria started replicating. During the early treatment with MRY D2, the majority of muraymycin derivatives and cCPZ had MICs between 16 µg/mL for cCPZ and 128 µg/mL for MRY D2 (Figure 1d). These MICs were relatively high compared with the MICs of the first-choice antibiotics against uncomplicated chlamydial genital infections, DOX and AZI, which have MICs of <1 µg/mL against C. trachomatis serovar D in cell culture. All der ...
# C. trachomatis D/UW-3/CX [1] = assay: Anti-chlamydial activity (MIC) in C. trachomatis-infected HEp-2 cells, fluorescence microscopy; format: cell-based; conditions: for Effect on C. trachomatis infection (phenotype): added at 2 hpi, read at 30 hpi, HEp-2 cells; for MIC: C. trachomatis D/UW-3/CX-infected HEp-2 cells, compound added at 2 hpi, fluorescence microscopy at 30 hpi, MIC = lowest concentration with >90% reduction in inclusions or inducing enlarged aberrant cells, three experiments
# Method: First, we tested the lead compound MRY D2 (Figure 1a) and seven muraymycin derivatives (MRH; described in [47, 48]) on C. trachomatis in cell culture experiments. To this end, C. trachomatis D/UW-3/CX-infected HEp-2 cells were treated with the compounds at 2 h post infection (hpi; Figure 1b), which represents an early stage of the chlamydial developmental cycle before bacterial replication. Inhibitors were applied over a range of concentrations that were not detrimental to HEp-2 host cells in resazurin-based viability assays (Table S1), and the effects were visualized by fluorescence microscopy (Figure 1c and Figure S2) at 30 hpi. The minimal inhibitory concentration (MIC) for Chlamydia was defined as either the lowest concentration leading to a >90% reduction in inclusions or, for aberrance-inducing compounds, the concentration leading to abnormal chlamydial cell phenotypes, i.e., enlarged cells after treatment with PEN G [39].
# (§1) The effect of the compounds on active C. trachomatis infections was analyzed by fluorescence microscopy. […] The cells were washed once with medium and infected with freshly prepared C. trachomatis D/UW-3/CX EB-containing suspension. After 2 h incubation, the EB suspension was aspirated, and the cells were washed twice with medium. The effect of compounds on an infection was determined by application of the compound at 2 hpi or 12 hpi in a serial dilution from 1 µg/mL to 64 µg/mL (MRH-25, -76, -92, cCPZ) or from 1 µg/mL to 128 µg/mL (MRY D2, MRH-22, -23, -38, and -82). Negative controls were conducted with DMSO as a vehicle control. For Chlamydia, the MIC is defined as a >90% reduction in inclusions. The MIC of compounds inducing the formation of enlarged, aberrant bodies is the lowest concentration that induces the abnormal inclusion morphology.
# (§2) Infected HEp-2 cells were fixed and permeabilized with 100% (v/v) ice-cold methanol at 30 hpi and washed once with 1 × phosphate-buffered saline (PBS, 4 mM KH2PO4 pH 7.4, 16 mM Na2HPO4, 115 mM NaCl). The Pathfinder Chlamydia Culture Confirmation System (Bio-Rad Laboratories, Hercules, CA) was used to stain the C. trachomatis lipopolysaccharide and host cell cytoplasm by incubation for 30 min at 37 °C. Genomic DNA was stained with 10 µg/mL DAPI (Thermo Fisher Scientific) for 1 min and then washed twice with PBS for 10 min at 4 °C. Fluorescence microscopy was performed with an Axio observer Z.1 using the Zen2 software (Carl Zeiss, Oberkochen, Germany).
# [2] = tested on: Wolbachia strain B of A. albopictus; assay: Quantification (depletion) of Wolbachia by qPCR, 16S rDNA/actin B ratio; format: cell-based, Wolbachia strain B of Aedes albopictus; conditions: 4 µg/mL, 9 days, C6/36 cells, positive control
# Method: (a) A. albopictus C6/36 cells infected with Wolbachia strain B of A. albopictus were cultured for 9 days with or without the compounds at varying concentrations. […] (c) The depletion of Wolbachia from infected and treated C6/36 cells was measured after 9 days by extracting genomic DNA and measuring the ratio of Wolbachia 16S rDNA and A. albopictus actin B by qPCR; the median ± interquartile range from three experiments is shown.
# Susceptibility of Wolbachia toward different compounds was tested as described [32, 53]. In short, 1 × 10^4 cells/well of A. albopictus C6/36 infected with Wolbachia were cultured in supplemented medium in 96-well plates with or without compound at 26 °C for 9 days. The medium, with and without compound, was exchanged every third day, and the cells were harvested on day 9 for the extraction of genomic DNA using the QIAamp Kit (Qiagen, Hilden, Germany) according to the manufacturer’s protocol. Wolbachia were quantified by qPCR of the 16S rDNA gene of Wolbachia (GenBank accession No. X61767) and the actin B gene of A. albopictus (GenBank accession no. DQ657949) as described [32, 91]. A plasmid containing the appropriate insert was used to generate a standard curve to determine the copy number of the genes. The abundance of Wolbachia was normalized by calculating the ratio of 16S rDNA copies/µL to actin B copies/µL.
# C. pneumoniae MraY = assay: Inhibition of C. pneumoniae MraY in vitro (lipid I formation, TLC); format: biochemical; conditions: 0.5 µM compound (range tested 0.05-0.5 µM), 2 µg MraYCpn, C55-P, UDP-MurNAc-pentapeptide, 90 min, duplicate
# From the text: (a) C. pneumoniae and Wolbachia spp. MraY use the precursor molecules undecaprenyl-phosphate (C55-P) and uridine diphosphate (UDP)-N-acetylmuramoyl(MurNAc)-pentapeptide to form lipid I, which is glycosylated with N-acetylglucosamine (GlcNAc) by MurG, yielding lipid II. IM: inner membrane; UMP: uridine monophosphate; mDAP: meso-diaminopimelic acid; C55-P: undecaprenyl-phosphate. […] Reaction products were extracted, separated via thin-layer chromatography, and stained. Formation of lipid I by MraYCpn was inhibited by both tested inhibitors.
# C. pneumoniae MraY was heterologously overexpressed in E. coli, purified via His-tag affinity chromatography, and inhibition of the enzymatic activity was analyzed by visualizing the reaction products via thin-layer chromatography.
# Inhibition assays with MraYCpn and the compounds were performed based on the activity assays for MraYCpn as previously described, with minor modifications, in a final volume of 50 µL. First, 2.5 nmol C55-P (Larodan, Solna, Sweden) was dissolved in 0.43% (v/v) Triton X-100 by vortexing for 1 min. Then, 75 mM Tris-HCl (pH 7.5), 6 mM MgCl2, 10% (v/v) DMSO, and UDP-MurNAc-pentapeptide obtained from Bacillus cereus DSM2302 (based on) were added. Compounds were applied at the indicated concentrations and incubated with 2 µg MraYCpn at 30 °C for 90 min. […]
# C. trachomatis D/UW-3/CX [3] = assay: Effect of MRY D2 on active (mid-stage) and penicillin G-induced persistent C. trachomatis infections, inclusion counts; format: cell-based; conditions: read at 30 hpi
# Method: Figure 6 Effect of MRY D2 on PEN G-induced persistent C. trachomatis infections. (a) HEp-2 cells infected with C. trachomatis D/UW-3/CX were treated with 128 µg/mL MRY D2 at 2 hpi or 12 hpi to analyze the effect on active infection. Additionally, 128 µg/mL MRY D2 and 100 U/mL PEN G were added simultaneously at 2 hpi. To assess the effect on a PEN G-induced persistent infection, 100 U/mL PEN G was added at 2 hpi, and 128 µg/mL MRY D2 was added at 12 hpi. Anti-chlamydial activity was analyzed at 30 hpi by fluorescence microscopy. (b) Eukaryotic host cell cytoplasm from representative images was labelled with Evans Blue (red), genomic DNA with DAPI (blue), and chlamydial lipopolysaccharide with fluorescein (green). Scale bar: 10 µm. (c) Mean ± SD of inclusions/field and (d) the relative number of inclusions filled with either elementary bodies (EBs)/reticulate bodies (RBs), ABs, or a mixed phenotype, analyzed from three images. An unpaired, two-tailed Student’s t-test was performed against the respective vehicle control. ns: not significant, p > 0.05; *: p = 0.05 to 0.01; **: p = 0.01 to 0.001; ****: p < 0.0001. In comparison with the DMSO vehicle control, the addition of PEN G at 2 hpi induced persistence, characterized by aberrant bodies. Early application of MRY D2 at 2 hpi (p < 0.0001) and simultaneous application with PEN G at 2 hpi induced the formation of ABs. […] This was also visible if persistence was induced by PEN G at 2 hpi followed by MRY D2 addition at 12 hpi (p = 0.0037).
# as §1
# The effect of MRY D2 on penicillin-induced persistent C. trachomatis infections was analyzed as described for the active infection, with the following modifications. After removal of the EB-containing lysate at 2 hpi and washing of the cells, 100 U/mL PEN G was added to induce a persistent infection. MRY D2 was added at 12 hpi in a concentration range of 128 µg/mL to 1 µg/mL by serial dilution. In another approach, MRY D2 was applied simultaneously with PEN G at 2 hpi to determine if early administration influences the establishment of a persistent infection.
# as §2, with “Genomic DNA was stained with 10 µg/mL DAPI (Thermo Fisher Scientific) for 1 min and then washed twice with PBS for 10 min at 4 °C.” left out
# Inclusions were quantified using CellProfiler 4.0.6. […]
# HEp-2 cells [4] = assay: Cytotoxicity toward HEp-2 cells, resazurin-based alamarBlue viability assay; conditions: 28 h incubation, normalized to DMSO, non-linear regression from mean of two independent experiments, highest concentration tested 128 µg/mL
# Method: (§3) Cytotoxicity of the compounds toward HEp-2 cells was assessed using the resazurin-based alamarBlue cell viability reagent (Thermo Fisher Scientific, Waltham, MA, USA). 5 × 10^4 HEp-2 cells/mL were seeded into flat base TC-96-well plates (Sarstedt, Nümbrecht, Germany) and incubated at 37 °C and 5% (v/v) CO2. After 48 h, the cells were washed with medium, followed by the addition of compounds in a serial dilution ranging from 128 µg/mL to 1 µg/mL for another 28 h. Next, the cells were washed twice with Hank’s balanced salt solution (HBSS) and incubated with the alamarBlue cell viability reagent diluted 1:10 in HBSS for 1 h. The conversion of resazurin into resorufin by viable cells was determined by transferring the supernatant into black 96-well plates (Greiner Bio-One, Frickenhausen, Germany) and measuring the fluorescence at 550 nm excitation and 595 nm emission wavelengths using a Tecan infinite M200 plate reader and Tecan SparkControl software v3.2 (Tecan Group, Männedorf, Switzerland). HEp-2 cell viability was normalized to the vehicle control, and the cytotoxic concentration 50% (CC50) was calculated by non-linear regression using GraphPad Prism v10.1.2 (GraphPad Software, San Diego, CA, USA).
# HEp-2 cells [5] = tested on: HEp-2 cells
# Method: as §3
# [6] = 128 µg/mL MRY D2 alone added at 12 hpi
smiles,measurement,setting,value
"CC[C@H]1OC(=O)[C@H](C)[C@@H](O[C@H]2C[C@@](C)(OC)[C@@H](O)[C@H](C)O2)[C@H](C)[C@@H](O[C@@H]2O[C@H](C)C[C@H](N(C)C)[C@H]2O)[C@](C)(O)C[C@@H](C)CN(C)[C@H](C)[C@@H](O)[C@]1(C)O [AZI, azithromycin]",MIC,C. trachomatis serovar D,< 1 µg/mL
"O=C(O)c1cn(C2CC2)c2cc(N3CCNCC3)c(F)cc2c1=O [CIP, ciprofloxacin, reference compound]",Effect on C. trachomatis infection (phenotype),C. trachomatis D/UW-3/CX [1]; 0.5 µg/mL,bactericidal
"C[C@H]1c2cccc(O)c2C(=O)C2=C(O)[C@]3(O)C(=O)C(C(N)=O)=C(O)[C@@H](N(C)C)[C@@H]3[C@@H](O)[C@@H]21 [DOX, doxycycline]",Depletion of Wolbachia (16S rDNA/actin B by qPCR),[2],nearly completely depleted
same,MIC,C. trachomatis serovar D,< 1 µg/mL
"CC(C)C[C@H](NC(=O)[C@@H](NC(=O)N[C@H](C(=O)O)C(C)C)[C@@H]1CCN=C(N)N1)C(=O)NCCCN[C@H](C(=O)O)[C@H](O[C@@H]1O[C@H](CN)[C@@H](O)[C@H]1O)[C@H]1O[C@@H](n2ccc(=O)[nH]c2=O)[C@H](O)[C@@H]1O [MRY D2, Muraymycin D2]",MIC,C. trachomatis D/UW-3/CX [1],128 µg/mL
same,Inhibition of lipid I formation by recombinant MraYCpn,C. pneumoniae MraY,completely abolished enzymatic activity
same,Relative number of inclusions containing EBs/RBs,C. trachomatis D/UW-3/CX [3]; [6],83%
same,Relative number of inclusions containing a mixed phenotype (EBs/RBs/ABs),C. trachomatis D/UW-3/CX [3]; [6],8%
same,Phenotype on simultaneous treatment with PEN G,C. trachomatis D/UW-3/CX [3]; 128 µg/mL MRY D2 and 100 U/mL PEN G added simultaneously at 2 hpi,inclusions filled with ABs were visible as for PEN G alone
same,Fewer inclusions (reduction in inclusion number),C. trachomatis D/UW-3/CX [3]; active infection: 128 µg/mL MRY D2 alone added at 12 hpi,75%
same,Reduction of the inclusion quantity,"C. trachomatis D/UW-3/CX [3]; established persistent infection: 100 U/mL PEN G at 2 hpi, then 128 µg/mL MRY D2 at 12 hpi, vs PEN G only",70%
same,CC50,HEp-2 cells [4],> 128 µg/mL
"CC1(C)S[C@@H]2[C@H](NC(=O)Cc3ccccc3)C(=O)N2[C@H]1C(=O)O [PEN, penicillin, reference compound]",Effect on C. trachomatis infection (phenotype),C. trachomatis D/UW-3/CX [1]; 100 U/mL,"induced persistence visible as enlarged, aberrant bodies"
"CCCCCCCCCCCCCCCCC[C@H]1CN(C)[C@@H]([C@H](O[C@@H]2O[C@H](CN)[C@@H](O)[C@H]2O)[C@H]2O[C@@H](n3ccc(=O)[nH]c3=O)[C@H](O)[C@@H]2O)C(=O)N(C)[C@@H]1C(=O)O [cCPZ, carbacaprazamycin]",MIC,C. trachomatis D/UW-3/CX [1],16 µg/mL
same,CC50,HEp-2 cells [5],124 µg/mL
